US11214803B2, “Modulators of YAP1 expression” (Ionis Pharmaceuticals, Inc., priority 2019, dated 2022)
Strand notation (5' to 3'): a small letter for the sugar, then the base; units joined by * are phosphorothioate-linked, units joined directly phosphodiester-linked; [ ] holds rarer units or linkages, { } end groups; capitals alone tell only the bases. e = 2'-O-(2-methoxyethyl) (MOE); k = constrained ethyl (cEt); [5mC] = 5-methylcytosine; d = 2'-deoxy (DNA); m = 2'-O-methyl

Tested on: Yap1 mRNA
Test: Dose-dependent inhibition of human Yap1 in SNU-449 cells (Example 9, RTS36584)
Type: cell-based
Details: free uptake; for % UTC (Yap1 mRNA): approximately 48 hours; for IC50: linear regression on a log/linear plot
Method in brief: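 Read-out was Yap1 mRNA (primer-probe RTS36584) normalised to total RNA by RIBOGREEN, given as % of untreated cells, with IC50 fitted by linear regression of log/linear data. Oligonucleotides were dosed by free uptake to SNU-449 cells, 10,000/well, for ~48 h.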

Substance	% UTC (Yap1 mRNA) (31.3 nM) [% UTC]	% UTC (Yap1 mRNA) (125.0 nM) [% UTC]	% UTC (Yap1 mRNA) (500.0 nM) [% UTC]	% UTC (Yap1 mRNA) (2000.00 nM) [% UTC]	IC50 [µM]
1198958 (kT*kG*dT*dA*dT*dG*dT*d[5mC]*dA*dG*dA*kA*dG*kA*dG*kT; antisense) [compound 1198958]	68	39	16	5	0.1
1198555 (kA*kT*kT*dA*dG*dA*dG*dT*dA*dT*dG*dT*kG*kG*k[5mC]*eA; antisense) [compound 1198555]	73	40	19	9	0.1
1198610 (kT*kG*kT*dA*dT*dG*dT*d[5mC]*dA*dG*dA*dA*kG*kA*kG*eT; antisense) [compound 1198610]	69	29	7	2	0.1
1198815 (kT*kA*dG*dA*dG*dT*dA*dT*dG*dT*dG*kG*e[5mC]*kA*eA*kT; antisense) [compound 1198815]	84	64	34	15	0.2
1198696 (kT*kG*dT*dA*dT*dG*dT*d[5mC]*dA*dG*dA*dA*kG*eA*kG*eT) [compound 1198696]	58	31	11	2	0.04
1198290 (kT*kG*kG*dA*dA*dA*dT*dT*dG*dT*d[5mC]*dT*k[5mC]*eA*kT*eG; antisense) [compound 1198290]	60	39	20	10	0.1
1198550 (kA*kT*kA*dT*dG*dG*dA*dA*dA*dT*dT*dG*kT*k[5mC]*kT*e[5mC]) [compound 1198550]	73	56	30	13	0.2
1198961 (kA*kA*dA*dG*dT*dG*dT*dA*dT*dG*dT*k[5mC]*dA*kG*dA*kA; antisense) [compound 1198961]	77	35	11	3	0.1
1198638 (kA*kG*dA*dG*dT*dA*dT*dG*dT*dG*dG*d[5mC]*kA*eA*kT*eA; antisense) [compound 1198638]	70	42	13	4	0.1
1198358 (kT*kT*kT*dA*dA*dA*dG*dT*dG*dT*dA*dT*kG*eT*k[5mC]*eA; antisense) [compound 1198358]	68	39	20	8	0.1
1198438 (kT*dG*dT*dA*dT*dG*dT*d[5mC]*dA*dG*dA*kA*eG*kA*eG*kT) [compound 1198438]	62	28	7	2	0.04
1198203 (kG*kG*dA*dA*dA*dT*dT*dG*dT*d[5mC]*dT*e[5mC]*eA*eT*kG*k[5mC]) [compound 1198203]	71	51	25	11	0.1
1198905 (kA*kT*dA*dT*dT*dA*dG*dA*dG*dT*dA*kT*dG*kT*dG*kG; antisense) [compound 1198905]	75	43	21	6	0.1
1198365 (k[5mC]*kT*kA*dA*dG*dT*dA*dA*dG*dG*dT*dT*kT*e[5mC]*k[5mC]*e[5mC]; antisense) [compound 1198365]	59	38	15	5	0.1
1198499 (kT*kT*dT*dA*dG*dG*dA*dT*dG*d[5mC]*dA*eT*kG*eG*kT*eT) [compound 1198499]	89	42	30	12	0.2
1198557 (kA*kT*kA*dT*dT*dA*dG*dA*dG*dT*dA*dT*kG*kT*kG*eG; antisense) [compound 1198557]	81	52	26	11	0.2
1198698 (kA*kA*dG*dT*dG*dT*dA*dT*dG*dT*d[5mC]*dA*kG*eA*kA*eG) [compound 1198698]	55	29	8	2	0.03
1198202 (kG*kA*dA*dA*dT*dT*dG*dT*d[5mC]*dT*d[5mC]*eA*eT*eG*k[5mC]*k[5mC]; antisense) [compound 1198202]	83	46	16	5	0.1
1198406 (kG*d[5mC]*dT*dT*dT*dG*dG*dA*dA*dG*dA*kT*e[5mC]*kT*eG*kA; antisense) [compound 1198406]	70	57	31	16	0.2
1198611 (kA*kG*kT*dG*dT*dA*dT*dG*dT*d[5mC]*dA*dG*kA*kA*kG*eA; antisense) [compound 1198611]	37	19	4	1	< 0.03
1198569 (CACTTTTACATTAGGA; modified gapmer, chemistry not fully specified) [compound 1198569]	71	45	22	14	0.1
1200794 (kA*kG*kA*dG*dT*mA*dT*dG*dT*dG*dG*d[5mC]*dA*kA*kT*kA; antisense) [compound 1200794]	85	59	31	13	0.2
1198614 (kT*kA*kA*dA*dG*dT*dG*dT*dA*dT*dG*dT*k[5mC]*kA*kG*eA; antisense) [compound 1198614]	69	26	3	1	0.1
1198470 (kT*kA*dT*dT*dA*dG*dA*dG*dT*dA*dT*eG*kT*eG*kG*e[5mC]; antisense) [compound 1198470]	73	41	18	9	0.1
1198787 (kA*eG*kT*dG*dT*dA*dT*dG*dT*d[5mC]*dA*dG*eA*eA*kG*kA; antisense) [compound 1198787]	68	21	6	1	0.05
1198423 (TCTTATATGGTTTTGT; all C 5-methyl, all phosphorothioate, sugars by position not given here; cEt/MOE mixed gapmer, notation at position 4 garbled) [compound 1198423]	58	35	15	6	0.05
